Reference: patent US7429596B2, “1H-pyrrolo [2,3-D] pyrimidine derivatives and methods of use thereof” (The Regents of the University of California, priority 2003, dated 2008)
Residue numbers refer to the chain shown, from its start. Several values for one entry are separate records, joined by “and”; a condition that tells them apart may be missing. Identical values can stand only once. Entries after “also recorded” stand apart in the source; their conditions may differ. Like-named read-outs stand apart in the source and are kept apart here.

What was measured:
[1] = target: c-Fyn-wt (Homo sapiens, UniProt P06241); test: Inhibition of Src family kinase Fyn; format: biochemical
Sequence of c-Fyn-wt (P06241 whole entry): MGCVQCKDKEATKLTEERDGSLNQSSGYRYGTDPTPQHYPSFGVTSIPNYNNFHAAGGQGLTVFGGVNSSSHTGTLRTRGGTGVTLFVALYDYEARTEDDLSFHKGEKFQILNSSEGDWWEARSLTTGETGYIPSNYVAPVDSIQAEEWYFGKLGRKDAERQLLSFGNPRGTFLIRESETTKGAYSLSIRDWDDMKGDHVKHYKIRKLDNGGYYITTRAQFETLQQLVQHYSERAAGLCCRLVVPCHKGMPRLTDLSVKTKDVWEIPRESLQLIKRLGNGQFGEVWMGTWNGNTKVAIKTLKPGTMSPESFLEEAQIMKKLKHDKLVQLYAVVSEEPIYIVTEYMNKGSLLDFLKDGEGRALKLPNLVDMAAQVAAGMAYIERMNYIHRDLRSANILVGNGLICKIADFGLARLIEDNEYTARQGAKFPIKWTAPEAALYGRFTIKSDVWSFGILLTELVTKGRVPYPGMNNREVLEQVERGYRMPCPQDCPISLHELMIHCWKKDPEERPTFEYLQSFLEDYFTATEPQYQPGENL
Method: Experiments were performed to determine whether AB129 was capable of inhibiting the Src family kinase, Fyn. […] Such a compound would serve as a test compound for determining the importance of dual inhibition of CBR1 and protein kinases.

[2] = target: T1, carbonyl reductase 1 (CBR1) (Homo sapiens, UniProt P16152); test: CBR1 inhibition: menadione reduction, NADPH absorbance at 340 nm; format: biochemical; parameters: 6-His (N); made in house; host or cells: E. coli
T1 sequence (P16152 1-277): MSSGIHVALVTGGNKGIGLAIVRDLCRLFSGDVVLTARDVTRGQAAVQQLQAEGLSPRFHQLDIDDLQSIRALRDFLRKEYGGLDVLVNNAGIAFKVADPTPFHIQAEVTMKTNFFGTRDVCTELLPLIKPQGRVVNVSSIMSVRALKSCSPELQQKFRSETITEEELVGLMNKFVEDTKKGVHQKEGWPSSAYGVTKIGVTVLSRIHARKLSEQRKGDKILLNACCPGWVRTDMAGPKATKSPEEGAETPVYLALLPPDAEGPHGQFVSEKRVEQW
Method: CBR was expressed in E. coli and purified using glutathione beads; CBR has a naturally occurring. glutathione binding site. An N-terminal 6-His tagged protein was prepared to allow purification by metal affinity. Our CBR assay employs the synthetic substrate Menadione (2-methyl-1,4-naphthoquinone). Reaction progress is monitored by the decrease in NADPH-absorbance at 340 nm. Saturating concentrations of Menadione with variable concentrations of NADPH are employed in order to ascertain KI values.

[3] = tested on: A549 lung carcinoma cells; test: Cell cycle of A549 cells
[4] = target: T1, carbonyl reductase 1 (CBR1); test: Production of daunorubicinol from daunorubicin
Description: To independently confirm the ability of AB129 to inhibit CBR1 in A549 cells, an assay based on the role of CBR1 in attenuating the anti-cancer action of daunorubicin was employed.

[5] = tested on: A549 lung carcinoma cells; details: human, 2 days, 0.4 μM
[6] = i.v. serum half-life; format: in vivo; details: iv, read-out: i.v. serum half-life (t1/2)
Description: The data obtained from these cell culture assays and animal studies can be used in formulating a dosage range that is not toxic for use in human. The dosage of such compounds lies within a range of circulating concentrations that include the ED50 with little or no toxicity. The dosage can vary within this range depending upon the dosage form employed and the route of administration utilized. The exact formulation, route of administration and dosage can be chosen by the individual physician in view of the patient's condition. (See, e.g., Fingl et al., 1975, In: The Pharmacological Basis of Therapeutics, Ch. 1, p. 1). One of the advantages, among others, of using the AB129-type compounds and analogs described herein to treat disease, e.g., lung cancer or colon cancer is their lack of toxicity.

[7] = target: T2, N90V mutant of carbonyl reductase 1 (CBR1) (Homo sapiens, UniProt P16152, N90V); test: Sensitivity of N90V mutant CBR1 to inhibitor; format: biochemical; details: FIG. 30
T2 construct: made in house
T2 sequence (P16152 1-277 N90V): T1 sequence (P16152 1-277) with N90V
Description: To understand the basis for the potency of AB129 against CBR1, a computer algorithm was used for molecular docking of AB129 to an available crystal structure of porcine CBR1 to produce a model of the bound structure of AB129 (FIG. 24). This modeled co-structure was experimentally validated by site-directed mutagenesis of multiple amino acids in the proposed AB129 binding pocket (including a conserved Asn residue common to all SDR family members—FIGS. 25-27) and identification of AB129 resistant mutants of CBR1 (FIGS. 28-30). This binding model also potentially explains the importance of the hydroxyl moiety attached to the phenyl ring of AB129, as being critical for a H-bonding interaction with an active site Asn.

[8] = tested on: A549 lung carcinoma cells; test: A549 cell killing / viability
[9] = tested on: adenocarcinoma cells; test: Killing of adenocarcinoma cells in culture; format: cell-based
Description: In order to verify this assumption, the pyrazolopyrimidine RB2 and the analogous pyrrolopyrimidine RB5 were synthesized (FIG. 37). These compounds employ an R^2 isopropyl as opposed to the AB129 t-butyl because the Mitsunobu reaction used for RB5 synthesis is not amenable to t-butyl alkylation.

[10] = target: 11β-HSD1 (Homo sapiens, UniProt P28845); details: Diederich et al. 2000; cited from earlier work
Sequence of 11β-HSD1 (P28845 whole entry): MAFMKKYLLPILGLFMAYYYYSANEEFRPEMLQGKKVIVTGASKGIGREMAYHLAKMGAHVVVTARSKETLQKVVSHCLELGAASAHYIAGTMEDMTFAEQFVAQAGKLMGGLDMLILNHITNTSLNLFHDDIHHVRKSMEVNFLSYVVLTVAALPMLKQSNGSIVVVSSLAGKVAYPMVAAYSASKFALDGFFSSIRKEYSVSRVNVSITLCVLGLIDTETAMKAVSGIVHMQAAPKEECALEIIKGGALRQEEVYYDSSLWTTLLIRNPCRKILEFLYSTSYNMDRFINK

[11] = Table 1, read-out: IC50 anti-c-Fyn-wt
[12] = Table 1, read-out: IC50 anti-hCBR1

Row | Structure (SMILES) | IC50 [1, 11] | IC50 [2, 12] | IC50 ([2]; read-out: anti-CBR IC50) | other results
1 | CCOCCn1nc(-c2cccc(O)c2)c2c(N)ncnc21 [MT15] | 0.2 µM | 0.93 µM |  | 
2 | CC(C)(C)n1nc(-c2ccccc2)c2c(N)ncnc21 [AB001] | 0.11 µM | > 20 µM |  | 
3 | CNc1ncnc2c1c(-c1cccc(O)c1)cn2C(C)C [RB06] | 70 µM | 0.59 µM |  | fold less potent as an inhibitor of Fyn ([1]; predicted, versus AB129): > 100 fold; CBR inhibition compared with AB129 [2]: equipotent
4 | CC(C)(C)n1nc(-c2cccc(O)c2)c2c(N)ncnc21 [AB129] | 0.008 µM | 0.79 µM |  | IC50 ([1]; read-out: anti-Fyn IC50): 0.01 µM; A549 cells in G2/M phase [3]: approximately 12%; IC50 ([2]; FIG. 5, read-out: IC50, CBR1 catalyzed reduction of menadione by NADPH): ~5 µM; Ki ([2]; NADPH competitive): 0.4 µM and 0.3 to 0.4 µM; mode of inhibition of CBR1 ([2]; with respect to NADPH): pure NADPH competitive inhibitor; production of cardiotoxic metabolite daunorubicinol from daunorubicin [4]: able to block production; loss of viability of A549 cells [5]: 15%; half-life [6]: 2 to 2.5 h; sensitivity of N90V mutant CBR1 versus wild type CBR1 [7]: less sensitive; cell killing in human lung cancer cell line A549 [8]: mild to severe cell killing; also recorded: most potent A549 cell killing response
5 | CC(C)(C)n1nc(-c2ccc(N)cc2)c2c(N)ncnc21 [AB061] | 0.05 µM | > 20 µM |  | cell killing in human lung cancer cell line A549 [8]: mild to severe cell killing
6 | COc1cccc2c1C(=O)c1c(O)c3c(c(O)c1C2=O)C[C@@](O)(C(C)=O)C[C@@H]3O[C@H]1C[C@H](N)[C@H](O)[C@H](C)O1 [daunorubicin, reference compound] |  |  |  | loss of viability of A549 cells ([8]; daunorubicin single agent, 0.8 μM): 15%
7 | CC(C)n1cc(-c2cccc(O)c2)c2c(NCc3ccccc3)ncnc21 [RB08, 3-(4-benzylamino-7-isopropyl-7H-pyrrolo[2,3-d]pyrimidin-5-yl)-phenol] |  |  | 4.4 µM | IC50 ([1]; read-out: anti-Fyn IC50): 20 µM
8 | CC(C)(C)n1nc(Cc2cccc(O)c2)c2c(N)ncnc21 [RB01] | 1.2 µM | > 20 µM |  | 
9 | CC(C)n1cc(-c2cccc(O)c2)c2c(N(Cc3ccccc3)Cc3ccccc3)ncnc21 [RB09, 3-(4-dibenzylamino-7-isopropyl-7H-pyrrolo[2,3-d]pyrimidin-5-yl)-phenol] |  | > 20 µM |  | 
10 | CC(C)(C)n1nc(-c2cccc(N)c2)c2c(N)ncnc21 [AB060] | 0.05 µM | > 20 µM |  | cell killing in human lung cancer cell line A549 [8]: mild to severe cell killing
11 | CC(C)n1nc(-c2cccc(O)c2)c2c(N)ncnc21 [RB02] | 0.011 µM | 1 µM |  | killing of adenocarcinoma cells in culture [9]: kill adenocarcinoma cells in culture; CBR inhibition compared with AB129 [2]: comparable to AB129
12 | CNc1ncnc2c1c(-c1cccc(O)c1)cn2CCC(=O)OC(C)(C)C [RB10, tert-Butyl 3-(5-(3-hydroxyphenyl)-4-(methylamino)-4aH-pyrrolo[2,3-d]pyrimidin-7(7aH)-yl)propanoate] |  |  | 1.15 µM | 
13 | CC1(C)[C@@H](O[C@H]2O[C@H](C(=O)O)[C@@H](O)[C@H](O)[C@H]2O[C@@H]2O[C@H](C(=O)O)[C@@H](O)[C@H](O)[C@H]2O)CC[C@]2(C)[C@H]3C(=O)C=C4[C@@H]5C[C@@](C)(C(=O)O)CC[C@]5(C)CC[C@@]4(C)[C@]3(C)CC[C@@H]12 [glycyrrhizic acid] |  |  |  | IC50 [10]: 0.04 µM
14 | CCOCCn1nc(-c2ccccc2)c2c(N)ncnc21 [MT13] | 5 µM | > 20 µM |  | 
15 | CC(C)(C)n1nc(-c2ccc(F)c(O)c2)c2c(N)ncnc21 [MS01] | 0.003 µM | 1 µM |  | 
16 | CC(C)n1cc(-c2cccc(O)c2)c2c(N)ncnc21 [RB05, 3-(4-amino-7-isopropyl-7H-pyrrolo[2,3-d]pyrimidin-5-yl)-phenol] | 0.012 µM | 0.76 µM |  | killing of adenocarcinoma cells in culture [9]: kill adenocarcinoma cells in culture; CBR inhibition compared with AB129 [2]: comparable to AB129
17 | Cc1ccc(-c2nn(C(C)(C)C)c3ncnc(N)c23)cc1 [PP1, reference compound] |  |  |  | A549 cells in G2/M phase [3]: approximately 5.6%; IC50 [2]: > 20 µM; inhibition of CBR1 ([2]; at a concentration as high as 16 μM): did not inhibit; inhibition of CBR1 ([2]; in vitro assay, CBR1 expressed in bacteria): does not inhibit; cell killing in human lung cancer cell line A549 [8]: not
18 | CC(C)(C)n1nc(Cc2ccccc2O)c2c(N)ncnc21 [RB04] | 0.12 µM | > 20 µM |  | 
19 | CNc1ncnc2c1c(-c1cccc(N)c1)cn2C(C)C [RB07, [5-(3-amino-phenyl)-7-isopropyl-7H-pyrrolo[2,3-d]pyrimidin-4-yl]-methyl-amine] |  | > 20 µM |  | 
20 | CC(C)(C)n1nc(Cc2ccc(O)cc2)c2c(N)ncnc21 [RB03] | ~20 µM | > 20 µM |  | 
21 | CNc1ncnc2c1c(-c1cccc(O)c1)cn2CCC(=O)O [RB11, 3-(5-(3-hydroxyphenyl)-4-(methylamino)-4aH-pyrrolo[2,3-d]pyrimidin-7(7aH)-yl)propanoic acid] |  |  | 0.22 µM | 

The next lines start with results.

Row | IC50 [1, 11] | IC50 [2, 12] | IC50 ([2]; read-out: anti-CBR IC50) | Structure (SMILES) | other results
22 |  |  | 3.04 µM | CNc1ncnc2c1c(-c1cc(C)cc(O)c1)cn2C(C)C [SD2, 3-(7-isopropyl-4-methylamino-7H-pyrrolo[2,3-d]pyrimidin-5-yl)-5-methyl-phenol] | 
23 |  |  | 0.376 µM | CC(C)n1cc(-c2cc(O)cc(C(C)(C)C)c2)c2c(Cl)ncnc21 [SD7, 3-tert-butyl-5-(4-chloro-7-isopropyl-7H-pyrrolo[2,3-d]pyrimidin-5-yl)-phenol] | 
24 |  |  | 0.067 µM | CC(C)n1cc(-c2cc(O)cc(C(F)(F)F)c2)c2c(Cl)ncnc21 [SD8, 3-(4-Chloro-7-isopropyl-7H-pyrrolo[2,3-d]pyrimidin-5-yl)-5-trifluoromethyl-phenol] | 
25 |  |  | 7.65 µM | CNc1ncnc2c1c(-c1cc(O)cc(C(C)(C)C)c1)cn2C(C)C [SD3, 3-tert-Butyl-5-(7-isopropyl-4-methylamino-7H-pyrrolo[2,3-d]pyrimidin-5-yl)-phenol] | 
26 |  |  | 0.22 µM | CNc1ncnc2c1c(-c1cc(O)cc(Br)c1)cn2C(C)C [SD1, 3-bromo-5-(7-isopropyl-4-methylamino-7H-pyrrolo[2,3-d]pyrimidin-5-yl)-phenol] | 
27 |  |  | 0.193 µM | Cc1cc(O)cc(-c2cn(C(C)C)c3ncnc(Cl)c23)c1 [SD6, 3-(4-chloro-7-isopropyl-7H-pyrrolo[2,3-d]pyrimidin-5-yl)-5-methyl-phenol] | 
28 |  | 0.028 µM | 0.027 µM | CC(C)n1cc(-c2cc(O)cc(Br)c2)c2c(Cl)ncnc21 [SD5, 3-bromo-5-(4-chloro-7-isopropyl-7H-pyrrolo[2,3-d]pyrimidin-5-yl)-phenol] | 
29 |  |  | 0.416 µM | CNc1ncnc2c1c(-c1cc(O)cc(C(F)(F)F)c1)cn2C(C)C [SD4, 3-(7-Isopropyl-4-methylamino-7H-pyrrolo[2,3-d]pyrimidin-5-yl)-5-trifluoromethyl-phenol] | 
